Experimental data as given in patent US7829728B2, “Diarymethyl and related compounds” (Theravance, Inc., priority 2003, dated 2010).

Columns and labels:
[1] = target: T1, M3 muscarinic receptor (hM3) (Homo sapiens, UniProt P20309); test: Radioligand binding assay for muscarinic receptors (Assay Test Procedure B); settings: [3H]-NMS displacement, CHO cell membranes expressing hM3
T1 construct: expressed in transfected cells; host or cells: CHO cells, membranes
Description: CHO cell lines stably expressing cloned human hM1, hM2, hM3 and hM4 muscarinic receptor subtypes, respectively, were grown to near confluency in HAM's F-12 media supplemented with 10% FBS and 250 μg/mL Geneticin. The cells were grown in a 5% CO2, 37° C. incubator and lifted with 2 mM EDTA in dPBS. Cells were collected by 5 minute centrifugation at 650×g, and cell pellets were either stored frozen at −80° C. or membranes were prepared immediately for use. For membrane preparation, cell pellets were resuspended in lysis buffer and homogenized with a Polytron PT-2100 tissue disrupter (Kinematica AG; 20 seconds×2 bursts). Crude membranes were centrifuged at 40,000×g for 15 minutes at 4° C. […] The protein concentration of the membrane suspension was determined by the method described in Lowry et al., 1951, Journal of Biochemistry, 193, 265. […]
Radioligand binding assays for cloned human muscarinic receptors were performed in 96-well microtiter plates in a total assay volume of 100 μL. […] Filter plates were rinsed three times with wash buffer (10 mM HEPES) to remove unbound radioactivity. […] The plates were then counted in a PerkinElmer Topcount liquid scintillation counter (PerkinElmer Inc., Wellesley, Mass.). Binding data were analyzed by nonlinear regression analysis with the GraphPad Prism Software package (GraphPad Software, Inc., San Diego, Calif.) using the one-site competition model. […]

[2] = target: human β2 adrenergic receptor (Homo sapiens, UniProt P07550); test: Whole-cell cAMP Flashplate assay with a lung epithelial cell line (BEAS-2B) endogenously expressing human β2 adrenergic receptor (Assay Test Procedure E); assay type: cell-based; settings: BEAS-2B human lung epithelial cells, endogenous receptor
Description: For the determination of agonist potencies and efficacies (intrinsic activities) in a cell line expressing endogenous levels of the β2 adrenergic receptor, a human lung epithelial cell line (BEAS-2B) was used (ATCC CRL-9609, American Type Culture Collection, Manassas, Va.) (January B, et al., British Journal of Pharmacology, 1998, 123, 4, 701-11). Cells were grown to 75-90% confluency in complete, serum-free medium (LHC-9 MEDIUM containing Epinephrine and Retinoic Acid, cat #181-500, Biosource International, Camarillo, Calif.). […] On the day of the assay, cells were rinsed with PBS, lifted by scraping with 5 mM EDTA in PBS, and counted. […] Plates were sealed, incubated over night at 4° C. and counted the next morning in a Topcount scintillation counter (Packard BioScience Co., Meriden, Conn.). The amount of cAMP produced per mL of reaction was calculated based on the counts observed for samples and cAMP standards, as described in the manufacturer's user manual. Data were analyzed by nonlinear regression analysis with the GraphPad Prism Software package (GraphPad Software, Inc., San Diego, Calif.) using the 4-parameter model for sigmoidal dose-response. […]

Sequence of human β2 adrenergic receptor (P07550 whole entry): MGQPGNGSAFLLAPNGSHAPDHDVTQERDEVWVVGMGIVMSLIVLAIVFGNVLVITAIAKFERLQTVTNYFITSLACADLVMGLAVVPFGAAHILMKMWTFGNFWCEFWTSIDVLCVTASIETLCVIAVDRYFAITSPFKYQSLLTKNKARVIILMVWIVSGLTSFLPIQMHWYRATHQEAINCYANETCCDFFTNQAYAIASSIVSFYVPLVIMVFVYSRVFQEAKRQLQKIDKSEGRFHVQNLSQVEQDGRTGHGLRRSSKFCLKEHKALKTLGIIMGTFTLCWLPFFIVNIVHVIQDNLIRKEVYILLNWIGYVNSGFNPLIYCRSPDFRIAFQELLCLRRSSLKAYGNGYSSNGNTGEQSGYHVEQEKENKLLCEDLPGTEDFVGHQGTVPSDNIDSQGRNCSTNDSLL
T1 sequence (P20309 whole entry): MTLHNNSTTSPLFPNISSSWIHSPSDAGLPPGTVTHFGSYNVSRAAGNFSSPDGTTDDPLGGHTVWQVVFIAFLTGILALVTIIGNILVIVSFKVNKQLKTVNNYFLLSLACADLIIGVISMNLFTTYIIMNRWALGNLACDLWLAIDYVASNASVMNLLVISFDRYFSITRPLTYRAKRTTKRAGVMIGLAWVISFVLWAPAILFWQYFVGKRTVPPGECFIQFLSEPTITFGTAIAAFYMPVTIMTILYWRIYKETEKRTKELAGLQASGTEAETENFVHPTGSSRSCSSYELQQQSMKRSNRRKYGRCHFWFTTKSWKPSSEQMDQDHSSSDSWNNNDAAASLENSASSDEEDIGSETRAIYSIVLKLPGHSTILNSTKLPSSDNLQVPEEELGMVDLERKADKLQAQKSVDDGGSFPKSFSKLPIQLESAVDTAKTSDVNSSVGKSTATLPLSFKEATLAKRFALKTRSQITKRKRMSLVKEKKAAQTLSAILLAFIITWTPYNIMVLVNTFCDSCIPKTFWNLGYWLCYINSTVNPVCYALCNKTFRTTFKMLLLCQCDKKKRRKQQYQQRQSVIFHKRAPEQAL

For NC(=O)C(c1ccccc1)(c1ccccc1)[C@@H]1CCN(CCCCCCCCCNCC(O)c2ccc(O)c3[nH]c(=O)ccc23)C1 (mixture of isomers) [Example 1, 2-((S)-1-{9-[2-Hydroxy-2-(8-hydroxy-2-oxo-1,2-dihydroquinolin-5-yl)ethylamino]-nonyl}pyrrolidin-3-yl)-2,2-diphenylacetamide], the Ki [1] was < 50 nM and the EC50 [2] was < 10 nM.
